Assay results as given in US9284307B2, “Macrocyclic serine protease inhibitors” (Idenix Pharmaceuticals LLC, priority 2009, dated 2016).

Tests used:
[1] = test system: JFH-1 HCV virus (genotype 2a); assay: Genotype 2a infectious virus assay (JFH-1, HCV core ELISA in HPC cells); format: cell-based; conditions: Hepatitis C virus, 120 h, 5 days
Experimental: The genotype 2a infectious virus assay measures the ability of a test compound to inhibit HCV replication in cell culture after 5 days of treatment at the time of HCV genotype 2a virus infection of a permissive human hepatoma cell line (HPC cells). The inhibition of HCV replication was measured by quantification of HCV core protein expression by an enzyme-linked immunosorbent assay (ELISA). Briefly, HPC cells were grown in DMEM containing glucose, L-glutamine and sodium pyruvate, 10% FBS, 100 IU/mL penicillin, 100 μg/mL streptomycin, 2 mM GlutaMAX, and non-essential amino acids. GlutaMAX was obtained from Invitrogen, Corp.; all other media reagents were obtained from Mediatech, Inc. For dose-response testing, ninety-six-well plates were seeded with HPC cells at a density of 2.5×10^3 cells/well in a volume of 50 μL, and incubated at 37° C./5% CO2. Three hours after plating, 50 μL of ten 5-fold serial dilutions of compound and 100 μL of genotype 2a virus were added, and cell cultures were incubated at 37° C./5% CO2. […]
The HCV in vitro infection core ELISA assay measures the ability of a test compound to inhibit replication of an infectious HCV (strain JFH-1; genotype 2a) in cell culture. […] The readout of the assay is quantification of HCV core protein by ELISA 5 days post infection with JFH-1 virus and treatment with a test compound. […]

HCV NS3-NS4A protease 1b = target: T1, HCV NS3-NS4A protease 1b (Hepatitis C virus genotype 1b, UniProt Q9WMX2); assay: HCV protease assay (HiLyte Fluor TR/QXL 610 FRET peptide), genotype 1b; format: biochemical; conditions: 2-3 nM protease, 60 min at 30° C., read-out: IC50 Against HS3/4A 1b
T1 construct: using 2-3 nM HCV NS3-NS4A protease, which was produced according to the method of Taremi et al; made in house
T1 sequence (Q9WMX2 1027-1208): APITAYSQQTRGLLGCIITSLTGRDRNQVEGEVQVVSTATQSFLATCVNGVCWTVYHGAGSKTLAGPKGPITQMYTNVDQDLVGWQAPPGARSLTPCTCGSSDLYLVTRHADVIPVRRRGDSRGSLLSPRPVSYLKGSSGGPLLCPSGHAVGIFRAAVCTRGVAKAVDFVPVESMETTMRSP
Experimental: Measurement of the inhibitory effect of compounds on HCV protease activity was performed using the HiLyte Fluor™ TR/QXL™ 610 FRET peptide from AnaSpec, Inc. (San Jose, Calif.) under conditions developed in-house using 2-3 nM HCV NS3-NS4A protease, which was produced according to the method of Taremi et al. (Protein Science, 1998, 7, 2143-2149). The compounds were tested at a variety of concentrations in assay buffer containing a final DMSO concentration of 5%. Reactions were allowed to proceed for 60 min at 30° C. and fluorescence measurements were recorded with a PerkinElmer Victor^3 V 1420 Multilabel Counter. The IC50 values were determined from the percent inhibition versus concentration data using a sigmoidal non-linear regression analysis based on four parameters with XLfit 4.1 software.

[2] = test system: HCV luciferase-bearing mutant replicon, NS3 A156S, in cured GS4.1 cells; assay: Luciferase replicon transient transfection assay, A156S mutant replicon; format: cell-based
Experimental: The luciferase replicon transient transfection assay measures the ability of a test compound to inhibit the replication of a transiently-transfected HCV luciferase-bearing wild-type or mutant replicon in cured human hepatoma cells (cured GS4.1). The mutant replicons bear a specific single-site mutation in NS3 that is known to confer resistance to protease inhibitors currently in development. The inhibition of HCV replication was measured by quantification of luciferase protein expression. This assay has been validated using a panel of replicons bearing known protease inhibitor resistance mutations and their respective reference compounds. Briefly, subconfluent cured GS4.1 cells in OptiBuffer (ThermoElectron Corp.) were electroporated with 40 μg of wild-type or mutant luciferase-bearing HCV replicon RNA. The cells were then seeded in 96-well opaque white plates at 2.4×10^4 cells/well in 150 μL/well and incubated for 4 hours at 37° C./5% CO2. […] The plates were agitated on a rotating platform at room temperature for 3 minutes and read in a Victor^3V microplate reader (Perkin-Elmer) using a 700 nm cut-off filter with a 1 second read time. EC50 values were calculated from dose response curves from the resulting best-fit equations determined by Microsoft Excel and XLfit 4.1 software.

| Structure (SMILES) | EC50 [1] [nM] | IC50 (HCV NS3-NS4A protease 1b) [nM] | Fold Change, A156S replicon ([2]; EC50 fold change, A156S replicon) | EC50 ([2]; Hepatitis C virus, 96 h, read-out: EC50(nm), A156S replicon) [nM] |
| --- | --- | --- | --- | --- |
| C#Cc1csc(-c2cc(O[C@H]3CC[C@H]4C(=O)N(C)CCCC/C=C\[C@@H]5C[C@@]5(C(=O)NS(=O)(=O)C5(C)CC5)NC(=O)[C@@H]4C3)c3ccc(OC)c(C)c3n2)n1 [Compound 52, (1aR,3aR,5S,7aR,15aS,Z)-5-(2-(4-ethynylthiazol-2-yl)-7-methoxy-8-methylquinolin-4-yloxy)-9-methyl-N-(1-methylcyclopropylsulfonyl)-3,8-dioxo-1a,2,3,3a,4,5,6,7,7a,8,9,10,11,12,13,15a-hexadecahydro-1H-benzo[c]cyclopropa[g][1,6]diazacyclotetradecine-1a-carboxamide] | < 1000 | – | – | – |
| COc1ccc2c(O[C@H]3CC[C@H]4C(=O)N(C)CCCC/C=C\[C@@H]5C[C@@]5(C(=O)NS(=O)(=O)C5(C)CC5)NC(=O)[C@@H]4C3)cc(-c3nc(C(F)(F)F)cs3)nc2c1C [Compound 51] | < 1000 | < 1000 | 0.2 to 0.6 | 0.1 to 0.35 |
